Assay results reported in publication PMC3773576 (Cell Research, 2013).
pEC50: −log10 of the molar value.

Assays:
[1] = target: T1, KCNQ2 potassium channel (Kv7.2) (Homo sapiens, UniProt O43526); experiment: whole-cell voltage clamp in CHO cells; type: cell-based
[2] = target: T1, KCNQ2 potassium channel (Kv7.2); experiment: whole-cell voltage clamp in CHO cells, with VSD mutagenesis; type: cell-based

T1 sequence (O43526 whole entry): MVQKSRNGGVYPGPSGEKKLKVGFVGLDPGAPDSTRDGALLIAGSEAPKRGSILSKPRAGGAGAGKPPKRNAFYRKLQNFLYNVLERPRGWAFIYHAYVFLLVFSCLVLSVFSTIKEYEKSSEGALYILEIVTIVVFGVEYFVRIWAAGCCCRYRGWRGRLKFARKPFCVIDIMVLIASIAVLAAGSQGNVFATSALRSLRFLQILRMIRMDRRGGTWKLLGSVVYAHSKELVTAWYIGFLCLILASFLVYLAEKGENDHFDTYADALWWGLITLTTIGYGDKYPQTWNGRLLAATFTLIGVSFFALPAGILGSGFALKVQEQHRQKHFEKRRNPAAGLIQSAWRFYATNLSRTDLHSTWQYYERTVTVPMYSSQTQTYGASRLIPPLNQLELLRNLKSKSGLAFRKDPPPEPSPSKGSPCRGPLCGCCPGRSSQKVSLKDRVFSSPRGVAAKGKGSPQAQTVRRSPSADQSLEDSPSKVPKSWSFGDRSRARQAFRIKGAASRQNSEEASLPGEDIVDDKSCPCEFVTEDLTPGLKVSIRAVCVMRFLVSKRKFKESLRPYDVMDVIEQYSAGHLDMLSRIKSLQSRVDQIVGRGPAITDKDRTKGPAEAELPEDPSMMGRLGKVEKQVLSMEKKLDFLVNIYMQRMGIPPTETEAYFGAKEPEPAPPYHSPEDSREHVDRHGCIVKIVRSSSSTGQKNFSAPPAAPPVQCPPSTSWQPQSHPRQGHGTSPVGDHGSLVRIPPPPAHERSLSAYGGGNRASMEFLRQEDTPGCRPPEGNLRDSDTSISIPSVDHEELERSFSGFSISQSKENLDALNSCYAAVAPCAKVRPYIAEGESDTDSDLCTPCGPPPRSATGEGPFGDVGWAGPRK

Q: With `O=C(Nc1ccc(Cl)nc1)c1ccccc1` [YGP1, N-(6-Chloropyridin-3-yl)benzamide] as the molecule, how does the “whole-cell voltage clamp in CHO cells” value [1] read?
A: The value was “Electrophysiological recording showed that YGP1 still exhibited potentiation activity on KCNQ2 as ztz240 did”.

Q: With `O=C(Nc1ccc(Cl)nc1)c1ccc(F)cc1` [ztz240] as the molecule, how does the pEC50 [2] read?
A: Its pEC50 is 5.55.
